Patent US4520022A, “Substituted vinyl cephalosporins” (priority 1983, dated 1985)
In brackets after ≈: the same amount, converted by molar mass. Like-named read-outs stand apart in the source and are kept apart here.

Key:
in vivo = conditions: mouse; for half-life: T1/2
[1] = system: Gp Ib: S. aureus 193, BX-1633-2 A9606, A15092, Russell, A9602; conditions: Staphylococcus aureus
[2] = system: Gp Ia: S. aureus Smith A9537, A9497, Terajima, A9534, A9601; conditions: Staphylococcus aureus, read-out: Minimum Inhibitory Concentration Gp Ia, Mueller-Hinton agar, average of five organisms
E. coli Juhl = assay: Protective dose, mice infected with lethal inoculum, oral treatment, E. coli Juhl; format: in vivo; conditions: for ED50: Escherichia coli, po, 120 h, read-out: Protective dose (PD50), E. coli Juhl
S. aureus Smith = assay: Protective dose, mice infected with lethal inoculum, oral treatment, S. aureus Smith; format: in vivo; conditions: Staphylococcus aureus, po, 120 h, read-out: Protective dose (PD50), S. aureus Smith
S. pneumoniae = assay: In vitro activity against Streptococci (MIC), S. pneumoniae; format: cell-based; conditions: Streptococcus pneumoniae, Compound 9 lot 2
N. meningitidis = assay: In vitro activity against Neisseria (MIC), N. meningitidis; format: cell-based
S. pyogenes = assay: In vitro activity against Streptococci (MIC), S. pyogenes; format: cell-based; conditions: Streptococcus pyogenes, Compound 9 lot 2
N. gonorrheae = assay: In vitro activity against Neisseria (MIC), N. gonorrheae; format: cell-based
H. influenzae = assay: In vitro activity against Haemophilis (MIC), H. influenzae; format: cell-based; conditions: Haemophilus influenzae, Compound 9 lot 2
[3] = mouse, in vivo
[4] = read-out: Minimum Inhibitory Concentration Gp Ib, Mueller-Hinton agar, run 1, average of five organisms
[5] = oral, 50% survival for 5 days, groups of 5 mice
[6] = read-out: Minimum Inhibitory Concentration Gp Ib, Mueller-Hinton agar, run 2, average of five organisms

## CC/C=C\C1=C(C(=O)[O-])N2C(=O)[C@@H](NC(=O)[C@H](N)c3ccc(O)cc3)[C@H]2SC1.[Na+]
In vivo; im, 20 mg/kg, AUC*, Run 1, * mean of 3 runs
  AUC: 20 µg·h/mL
In vivo; im, 20 mg/kg
  Cmax: 25 µg/mL
  half-life: 0.74 h
In vivo; po, 20 mg/kg, AUC*, Run 1, * mean of 3 runs
  AUC: 41 µg·h/mL
In vivo; po, 20 mg/kg
  Cmax: 13 µg/mL
  half-life: 2 h
In vivo; po, 100 mg/kg, AUC
  AUC: 150 µg·h/mL
In vivo; po, 100 mg/kg
  Cmax: 51 µg/mL
  half-life: 1.9 h
[1]; read-out: Minimum Inhibitory Concentration Gp Ib
  MIC: 1.4 mg/L
[2]; run 1
  MIC: 0.4 mg/L
E. coli Juhl
  ED50: 3 mg/kg
S. aureus Smith
  ED50: 0.32 mg/kg

## C/C=C/C1=C(C(=O)O)N2C(=O)[C@@H](NC(=O)[C@H](N)c3ccc(O)cc3)[C@H]2SC1 [Compound 8, 7β-[D-2-Amino-2-(p-hydroxyphenyl)acetamido]-3-[(E)-1-propen-1-yl]-3-cephem-4-carboxylic Acid]
In vivo; im, 20 mg/kg, AUC*
  AUC: 31 µg·h/mL
In vivo; im, 20 mg/kg
  Cmax: 31 µg/mL
  half-life: 0.63 h
In vivo; po, 20 mg/kg, AUC*
  AUC: 22 µg·h/mL
In vivo; po, 20 mg/kg
  Cmax: 10 µg/mL
  half-life: 1.3 h
In vivo; po, 100 mg/kg, AUC
  AUC: 69 µg·h/mL
In vivo; po, 100 mg/kg
  Cmax: 30 µg/mL
  half-life: 1.4 h
[1]; [4]
  MIC: 1.4 mg/L (≈ 3.59 µM)
[2]; run 1
  MIC: 0.26 mg/L (≈ 0.668 µM)
E. coli Juhl; [5]
  ED50: 7.5 mg/kg
S. aureus Smith; [5]
  ED50: 0.2 mg/kg

## C=CC1=C(C(=O)O)N2C(=O)[C@@H](NC(=O)[C@H](N)c3ccc(O)cc3)[C@H]2SC1 [Compound 11]
In vivo; im, 20 mg/kg, AUC*
  AUC: 15 µg·h/mL
In vivo; im, 20 mg/kg
  Cmax: 23 µg/mL
  half-life: 0.37 h
In vivo; po, 20 mg/kg, AUC*
  AUC: 13 µg·h/mL
In vivo; po, 20 mg/kg
  Cmax: 11 µg/mL
  half-life: 1.4 h
In vivo; po, 100 mg/kg, AUC
  AUC: 49 µg·h/mL
In vivo; po, 100 mg/kg
  Cmax: 43 µg/mL
  half-life: 1.2 h
[1]; [4]
  MIC: 1.2 mg/L (≈ 3.2 µM)
[2]; run 1
  MIC: 0.4 mg/L (≈ 1.07 µM)
E. coli Juhl; [5]
  ED50: 3.8 mg/kg
S. aureus Smith; [5]
  ED50: 0.18 mg/kg

## N[C@@H](C(=O)N[C@@H]1C(=O)N2C(C(=O)O)=C(/C=C\Cc3ccccc3)CS[C@H]12)c1ccc(O)cc1 [Compound 15, 7β-[D-2-Amino-2-(p-hydroxyphenyl)acetamido]-3-[(Z)-3-phenyl-1-propen-1-yl]-3-cephem-4-carboxylic acid]
S. pneumoniae; S. pneumoniae A9585, read-out: MIC
  MIC: 0.4 mg/L (≈ 0.859 µM)
S. pneumoniae; S. pneumoniae A15069, read-out: MIC
  MIC: 0.2 mg/L (≈ 0.43 µM)
S. pneumoniae; S. pneumoniae A20759, read-out: MIC
  MIC: 0.4 mg/L (≈ 0.859 µM)
S. pneumoniae; S. pneumoniae Type I, read-out: MIC
  MIC: 0.2 mg/L (≈ 0.43 µM)
S. pneumoniae; S. pneumoniae Type II, I, III, A9585, A15069, read-out: MIC, Geometric Mean
  MIC: 0.23 mg/L (≈ 0.494 µM)
S. pneumoniae; S. pneumoniae Type II, read-out: MIC
  MIC: 0.2 mg/L (≈ 0.43 µM)
S. pneumoniae; S. pneumoniae Type III, read-out: MIC
  MIC: 0.2 mg/L (≈ 0.43 µM)
In vivo; im, 20 mg/kg, AUC*
  AUC: 52 µg·h/mL
In vivo; im, 20 mg/kg
  Cmax: 31 µg/mL
  half-life: 0.99 h
In vivo; po, 20 mg/kg, AUC*
  AUC: 38 µg·h/mL
In vivo; po, 20 mg/kg
  Cmax: 12 µg/mL
  half-life: 2.7 h
In vivo; po, 100 mg/kg, AUC
  AUC: 81 µg·h/mL
In vivo; po, 100 mg/kg
  Cmax: 41 µg/mL
  half-life: 2.7 h
[1]; [4]
  MIC: 0.7 mg/L (≈ 1.5 µM)
N. meningitidis; N. meningitidis A21487, Compound 9 lot 2
  MIC: > 100 mg/L
N. meningitidis; N. meningitidis A21496, Compound 9 lot 2
  MIC: > 100 mg/L
N. meningitidis; N. meningitidis A21497, Compound 9 lot 2
  MIC: > 100 mg/L
N. meningitidis; Neisseria meningitidis, read-out: MIC
  MIC: > 100 mg/L
N. meningitidis; Neisseria meningitidis, read-out: MIC, Geometric Mean
  MIC: > 100 mg/L
[2]; run 1
  MIC: 0.2 mg/L (≈ 0.43 µM)
S. pyogenes; S. pyogenes A9604, read-out: MIC
  MIC: 0.2 mg/L (≈ 0.43 µM)
S. pyogenes; S. pyogenes A15040, read-out: MIC
  MIC: 0.2 mg/L (≈ 0.43 µM)
S. pyogenes; S. pyogenes A20065, read-out: MIC
  MIC: 0.2 mg/L (≈ 0.43 µM)
S. pyogenes; S. pyogenes A20201, read-out: MIC
  MIC: 0.2 mg/L (≈ 0.43 µM)
S. pyogenes; S. pyogenes Dick, read-out: MIC
  MIC: 0.2 mg/L (≈ 0.43 µM)
S. pyogenes; S. pyogenes S-23, Dick, A9604, A20065, A15040, read-out: MIC, Geometric Mean
  MIC: 0.2 mg/L (≈ 0.43 µM)
S. pyogenes; S. pyogenes S-23, read-out: MIC
  MIC: 0.2 mg/L (≈ 0.43 µM)
N. gonorrheae; N. gonorrheae A20142, Compound 9 lot 2
  MIC: > 100 mg/L
N. gonorrheae; N. gonorrheae A20143, Compound 9 lot 2
  MIC: > 100 mg/L
N. gonorrheae; N. gonorrheae A20154, Compound 9 lot 2
  MIC: > 100 mg/L
N. gonorrheae; N. gonorrheae A20155, Compound 9 lot 2
  MIC: > 100 mg/L
N. gonorrheae; read-out: MIC
  MIC: > 100 mg/L
N. gonorrheae; read-out: MIC, Geometric Mean
  MIC: > 100 mg/L
H. influenzae; H. influenzae A9729, read-out: MIC
  MIC: > 100 mg/L
H. influenzae; H. influenzae A9833, read-out: MIC
  MIC: > 100 mg/L
H. influenzae; H. influenzae A20177, read-out: MIC
  MIC: > 100 mg/L
H. influenzae; H. influenzae A20193, read-out: MIC
  MIC: > 100 mg/L
H. influenzae; H. influenzae A21523, read-out: MIC
  MIC: > 100 mg/L
H. influenzae; H. influenzae A22157, read-out: MIC
  MIC: 25 mg/L (≈ 53.7 µM)
H. influenzae; H. influenzae A22481, read-out: MIC
  MIC: 25 mg/L (≈ 53.7 µM)
H. influenzae; H. influenzae A22482, read-out: MIC
  MIC: > 100 mg/L
H. influenzae; H. influenzae A22483, read-out: MIC
  MIC: > 100 mg/L
H. influenzae; H. influenzae A22491, read-out: MIC
  MIC: 25 mg/L (≈ 53.7 µM)
H. influenzae; H. influenzae, seven strains above, read-out: MIC, Geometric Mean
  MIC: > 100 mg/L

## COC/C=C\C1=C(C(=O)O)N2C(=O)[C@@H](NC(=O)[C@H](N)c3ccc(O)cc3)[C@H]2SC1 [Compound 17, 7β-[D-2-Amino-2-(p-hydroxyphenyl)acetamido]-3-[(Z)-3-methoxy-1-propen-1-yl]-3-cephem-4-carboxylic Acid]
In vivo; im, 20 mg/kg, AUC*
  AUC: 19 µg·h/mL
In vivo; im, 20 mg/kg
  Cmax: 24 µg/mL
  half-life: 0.6 h
In vivo; po, 20 mg/kg, AUC*
  AUC: 28 µg·h/mL
In vivo; po, 20 mg/kg
  Cmax: 18 µg/mL
  half-life: 1.6 h
In vivo; po, 100 mg/kg, AUC
  AUC: 197 µg·h/mL
In vivo; po, 100 mg/kg
  Cmax: 73 µg/mL
  half-life: 1.7 h
[1]; [4]
  MIC: 2.1 mg/L (≈ 5.01 µM)
[2]; run 1
  MIC: 0.53 mg/L (≈ 1.26 µM)

## N[C@@H](C(=O)N[C@@H]1C(=O)N2C(C(=O)O)=C(C=CCSc3cnn[nH]3)CS[C@H]12)c1ccc(O)cc1 [Compound 21, 7β-[D-2-Amino-2-(p-hydroxyphenyl)acetamido]-3-[3-(1H-1,2,3-triazol-5-yl)thio-1-propen-1-yl]-3-cephem-4-carboxylic Acid]
In vivo; im, 20 mg/kg, AUC*
  AUC: 9.6 µg·h/mL
In vivo; im, 20 mg/kg
  Cmax: 16 µg/mL
  half-life: 0.54 h
In vivo; po, 20 mg/kg, AUC*
  AUC: 6.6 µg·h/mL
In vivo; po, 20 mg/kg
  Cmax: 1.7 µg/mL
  half-life: 2.6 h
In vivo; po, 100 mg/kg, AUC
  AUC: 19 µg·h/mL
In vivo; po, 100 mg/kg
  Cmax: 4.4 µg/mL
  half-life: 3.2 h
[1]; [4]
  MIC: 2.7 mg/L (≈ 5.53 µM)
[2]; run 1
  MIC: 0.61 mg/L (≈ 1.25 µM)
[3]; po
  oral absorption: Uniformly good oral absorption is reflected except for Compound No. 21

## C/C=C\C1=C(C(=O)O)N2C(=O)[C@@H](NC(=O)[C@H](N)c3ccccc3)[C@H]2SC1 [Compound 24, 7β-(D(-)-2-Amino-2-phenylacetamido)-3-[(Z)-1-propen-1-yl]-3-cephem-4-carboxylic acid]
In vivo; im, 20 mg/kg, AUC*
  AUC: 22 µg·h/mL
In vivo; im, 20 mg/kg
  Cmax: 31 µg/mL
  half-life: 0.5 h
In vivo; po, 20 mg/kg, AUC*
  AUC: 15 µg·h/mL
In vivo; po, 20 mg/kg
  Cmax: 7.8 µg/mL
  half-life: 1.3 h
In vivo; po, 100 mg/kg, AUC
  AUC: 84 µg·h/mL
In vivo; po, 100 mg/kg
  Cmax: 40 µg/mL
  half-life: 1.1 h
[1]; [4]
  MIC: 0.92 mg/L (≈ 2.46 µM)
[1]; [6]
  MIC: 0.92 mg/L (≈ 2.46 µM)
[2]; run 1
  MIC: 0.23 mg/L (≈ 0.616 µM)
[2]; run 2
  MIC: 0.3 mg/L (≈ 0.803 µM)
E. coli Juhl; [5]
  ED50: 1.5 mg/kg
E. coli Juhl; in words
  activity against the Gram- infection: more active against the Gram- infection
[3]; im, 20 mg/kg
  T1/2: 0.58 h
[3]; po, 20 mg/kg
  T1/2: 0.69 h
[3]; po, 100 mg/kg
  T1/2: 1.1 h
S. aureus Smith; [5]
  ED50: 0.18 mg/kg

## C/C=C\C1=C(C(=O)O)N2C(=O)[C@@H](NC(=O)[C@H](N)c3ccc(O)c(Cl)c3)[C@H]2SC1 [Compound 32, 7β-[D-2-Amino-2-(3-chloro-4-hydroxyphenyl)acetamido]-3-[(Z)-1-propen-1-yl]-3-cephem-4-carboxylic acid]
In vivo; im, 20 mg/kg, AUC*
  AUC: 13 µg·h/mL
In vivo; im, 20 mg/kg
  Cmax: 21 µg/mL
  half-life: 0.48 h
In vivo; po, 20 mg/kg, AUC*
  AUC: 13 µg·h/mL
In vivo; po, 20 mg/kg
  Cmax: 7.9 µg/mL
  half-life: 1.7 h
In vivo; po, 100 mg/kg, AUC
  AUC: 37 µg·h/mL
In vivo; po, 100 mg/kg
  Cmax: 25 µg/mL
  half-life: 1.7 h
[1]; [6]
  MIC: 0.53 mg/L (≈ 1.25 µM)
[2]; run 2
  MIC: 0.13 mg/L (≈ 0.307 µM)
E. coli Juhl; [5]
  ED50: 3.04 mg/kg
S. aureus Smith; [5]
  ED50: 0.17 mg/kg
